{
  "source": "patent US11845992B2",
  "about": "“Compositions and methods for predicting response and resistance to CDK4/6 inhibition” (DANA-FARBER CANCER INSTITUTE, INC., priority 2017, dated 2023)",
  "key": {"T47D cells [1]": {"test_system": "T47D cells", "assay": "Flow cytometry cell cycle analysis", "format": "cell-based"}, "T47D cells [2]": {"test_system": "T47D cells", "assay": "Growth inhibition assay, 5 days, normalized to DMSO", "format": "cell-based", "settings": "for change of GI50 by CDK6 overexpression: CDK6 overexpressing vs parental T47D; for change of GI50 by miR-432 overexpression: parental T47D overexpressing miR-432 (FIG. 10A)", "procedure": "(§1) Subsequently, cell growth was quantified and normalized to DMSO treated control.\nSubsequently, cell growth was quantified and normalized to DMSO treated control. BLISS Synergy/antagonism score was modelled using Combenefit software. FIG. 12C is a graph, wherein T47D parental and resistant cells were treated with escalating dose of galunisertib for 5 days. Subsequently, cell growth was quantified and normalized to DMSO treated control."}, "[3]": {"test_system": "estrogen receptor positive (ER+) and HER2 negative breast cancer", "settings": "patients; previous results; cited from earlier work"}, "T47D cells [4]": {"test_system": "T47D cells", "assay": "cells", "format": "cell-based", "settings": "for CC50: Homo sapiens, T47D", "procedure": "Cells were incubated for 14 to 21 days to allow colony formation. Colonies were fixed and permeabilised using Carnoy's fixative (75% methanol, 25% Acetic acid) and stained with 1% crystal violet and counted.\nCells stably expressing shRNA, miRNA or cDNA were generated using lentiviral transfection, as previously described using the pLKO.1 or pLEX-307 backbone (Moffat, J. et al., Cell 124: 1283-1298 (2006)). Multiple stable cell lines were generated for each protein knockdown; shRNA sequences were obtained from the RNAi Consortium database (Moffat, J. et al., Cell 124: 1283-1298 (2006)). CDK6 GeneArt cDNA sequences (K43M (Hu, M. G. et al., Blood 117: 6120-6131 (2011)), S178P (Bockstaele, L. et al., Mol. Cell Biol. 29: 4188-4200 (2009)) and R31C (Hu, M. G. et al., Blood 117: 6120-6131 (2011)) were purchased from ThermoFisher and cloned into the pLEX-307 backbone. For miRNA overexpression, ˜500 bp of DNA encompassing each miRNA sequence was PCR purified and cloned into the pLEX-307 backbone, miRNA mimics were purchased and transfected into cells as a positive control for miRNA detection. Protein expression/miRNA expression/knockdown was confirmed after 5 days of selection in puromycin (1 μg/ml for both T47D and MCF7).\nCDK6 by CRIPSR/Cas9 was performed as previously described (Sanjana, N. E. et al., Nat. Meth 11: 783-784 (2014)). The following sgRNA sequence was cloned into the LentiCRIPSR v2 vector-sgCDK6-7 (targeting the 5′UTR): […] (SEQ ID NO: 2). Cells were selected using 1 μg/ml puromycin and protein knockout confirmed after ˜12 days."}, "MCF7 cells": {"test_system": "MCF7 cells", "assay": "Growth inhibition assay, 5 days, normalized to DMSO", "format": "cell-based", "settings": "for change of GI50 by CDK6 overexpression: CDK6 overexpressing vs parental MCF7 (printed MCG-7); for change of GI50 by miR-432 overexpression: parental MCF7 overexpressing miR-432 (FIG. 10B)", "from_the_text": "as §1"}, "[5]": {"test_system": "palbociclib resistant MCF7 xenografts", "assay": "Palbociclib resistant MCF7 xenograft with treatment holiday", "format": "in vivo, mice", "settings": "100 mg/kg/day oral gavage, after 28 days treatment holiday", "procedure": "Female nude mice (NCr-Foxn1^NU, Tactonic Laboratories) were maintained and handled in isolators under specific pathogen-free conditions for tissue distribution and efficacy studies in accordance with local guidelines and therapeutic interventions approved by the Animal Care and Use Committee of Dana-Farber Cancer Institute. Mice were implanted with 17β-estradiol pellets (0.36 mg, 90-day release, Innovative Research of America) prior to cell implantation. […] Tumors were measured throughout the experiment and relative tumor volume calculated."}, "[6]": {"test_system": "CDK6 protein in T47D cells", "assay": "Western blot of CDK6 protein expression", "format": "cell-based", "settings": "palbociclib exposure up to 6 days", "procedure": "Cells were lysed with RIPA buffer (10 mM Tris, pH 7.5, 1% Nonidet-P40, 2 mM Na2EDTA, 150 mM NaCl) plus protease inhibitors (Calbiochem) and protein estimation was performed by Pierce assay. Gel electrophoresis was performed with Bis-Tris 4-12% (v/v) polyacrylamide gradient gels (ThermoFisher). Samples were transferred onto Immobilin-P PVDF membrane (EMD Millipore), and probed with primary antibodies against either CDK1, CDK2, CDK4, CDK6, Cyclin D1, Cyclin D3, Cyclin E, p2′7, SMAD3, SMAD4, TGFβ, TGFβR3 (Santa Cruz), pRB (Cell signaling) or actin (Genescript). Goat anti-rabbit or goat anti-mouse HRP-linked secondary antibodies (1:1000; Dako) and ECL reagent (Perkin Elmer) were used for protein detection. Cytokines were analyzed using the Human Cytokine Array Kit performed per manufactures instructions (R&D Systems)."}, "T47D cells [7]": {"test_system": "T47D cells", "assay": "Annexin V apoptosis assay", "settings": "48 hours"}, "[8]": {"test_system": "GFP-positive parental T47D cells", "assay": "GFP co-culture resistance transmission assay", "settings": "72 hours co-culture, exosome production inhibited", "method": "FIG. 11A is a bar graph, wherein cells were treated with either DMSO, 10 μM GW4869 or 10 μM manumycin A for 72 hours prior to exosome harvest and quantification. […] Subsequently, cells were harvested and analyzed by flow cytometry for GFP expression and cell cycle profile."}, "[9]": {"test_system": "parotid cancer harboring CDKN2A/B loss", "settings": "one patient; cited from earlier work"}},
  "note": "Entries after “also recorded” stand apart in the source; their conditions may differ. Where two headings read alike, the source gives them in different places.",
  "data": [
    {"smiles": "Cc1cccc(-c2nn3c(c2-c2ccnc4ccc(C(N)=O)cc24)CCC3)n1", "note": "[galunisertib]", "values": [
      {"measurement": "effect on palbociclib G1 arrest", "setting": "T47D cells [1]; in combination with palbociclib, T47D, 24 hours", "result": "prevent G1 arrest"},
      {"measurement": "interaction with palbociclib (BLISS synergy/antagonism)", "setting": "T47D cells [2]; combined with palbociclib, parental and resistant T47D cells", "result": "significantly antagonistic"},
      {"measurement": "effect on growth when used alone", "setting": "T47D cells [2]; parental or resistant T47D cells, 5 days", "result": "no effect"}
    ]},
    {"smiles": "N#Cc1ccc(C(c2ccc(C#N)cc2)n2cncn2)cc1", "note": "[letrozole]", "values": [
      {"measurement": "progression free survival", "setting": "[3]", "result": 14.5, "unit": "months"}
    ]},
    {"smiles": "CC(=O)c1c(C)c2cnc(Nc3ccc(N4CCNCC4)cn3)nc2n(C2CCCC2)c1=O", "note": "[palbociclib]", "values": [
      {"measurement": "sub-G1 DNA content compared to control cells", "setting": "T47D cells [1]; CDK6-depleted T47D cells, 100 nM, 24 hours", "result": "significantly more"},
      {"measurement": "cells in the G1 phase of the cell cycle", "setting": "T47D cells [1]; T47D, 100 nM, initial exposure (week 0)", "result": "more than 90%"},
      {"measurement": "cell cycle effect in parental cells", "setting": "T47D cells [1]; parental T47D, 100 nM or 300 nM, persisted for 14 days", "result": "sustained G1 arrest"},
      {"measurement": "cell cycle arrest on re-challenge", "setting": "T47D cells [1]; resistant cells after 6 weeks in drug-free media, 100 nM for 24 hours", "result": "indistinguishable from parental cells"},
      {"measurement": "CC50", "setting": "T47D cells [4]; read-out: LC50, survival after palbociclib treatment, CDK6 knockout T47D cells (sgK6-7)", "result": 34.2, "unit": "nM"},
      {"measurement": "CC50", "setting": "T47D cells [4]; read-out: LC50, survival after palbociclib treatment, INK4-insensitive CDK6 (R31C) T47D cells", "result": 632, "unit": "nM"},
      {"measurement": "CC50", "setting": "T47D cells [4]; read-out: LC50, survival after palbociclib treatment, constitutively active CDK6 (S178P) T47D cells", "result": 269, "unit": "nM"},
      {"measurement": "CC50", "setting": "T47D cells [4]; read-out: LC50, survival after palbociclib treatment, control T47D cells (sgNT)", "result": 66.2, "unit": "nM"},
      {"measurement": "CC50", "setting": "T47D cells [4]; read-out: LC50, survival after palbociclib treatment, kinase dead CDK6-expressing T47D cells (K43M)", "result": 26.6, "unit": "nM"},
      {"measurement": "CC50", "setting": "T47D cells [4]; read-out: LC50, survival after palbociclib treatment, wild-type CDK6 (WT) T47D cells", "result": 229, "unit": "nM"},
      {"measurement": "survival after palbociclib treatment compared to non-target shRNA control", "setting": "T47D cells [4]; shRNA-mediated CDK6-depleted T47D cells", "result": "significantly lower survival"},
      {"measurement": "change of GI50 by CDK6 overexpression", "setting": "T47D cells [2]", "result": "significantly increased"},
      {"measurement": "change of GI50 by miR-432 overexpression", "setting": "T47D cells [2]", "result": "significantly increased"},
      {"measurement": "change of GI50 by CDK6 overexpression", "setting": "MCF7 cells", "result": "significantly increased"},
      {"measurement": "change of GI50 by miR-432 overexpression", "setting": "MCF7 cells", "result": "significantly increased"},
      {"measurement": "tumor burden after re-introduction of treatment", "setting": "[5]", "result": "substantial regression of all but 1 tumor; also recorded: marked decrease"},
      {"measurement": "effect on CDK6 expression", "setting": "[6]", "result": "no observable effect"},
      {"measurement": "apoptosis", "setting": "T47D cells [7]; CDK6 knockdown and knockout T47D cells", "result": "marked increase"},
      {"measurement": "effect on apoptotic fraction", "setting": "T47D cells [7]; shNT-expressing T47D cells", "result": "no effect"}
    ]},
    {"smiles": "CCCC[C@@H](C)/C=C(C)/C=C(\\C)C(=O)NC1=C[C@@](O)(/C=C/C=C/C=C/C(=O)NC2=C(O)CCC2=O)[C@@H]2O[C@@H]2C1=O", "note": "[manumycin A]", "values": [
      {"measurement": "G1 population of GFP-positive parental cells co-cultured with resistant cells", "setting": "[8]", "result": "significant increase"}
    ]},
    {"smiles": "O=C(/C=C/c1ccc(/C=C/C(=O)Nc2ccc(C3=NCCN3)cc2)cc1)Nc1ccc(C2=NCCN2)cc1", "note": "[GW4869]", "values": [
      {"measurement": "G1 population of GFP-positive parental cells co-cultured with resistant cells", "setting": "[8]", "result": "significant increase"}
    ]},
    {"smiles": "CN(C)C(=O)c1cc2cnc(Nc3ccc(N4CCNCC4)cn3)nc2n1C1CCCC1", "note": "[ribociclib]", "values": [
      {"measurement": "change of GI50 by CDK6 overexpression", "setting": "T47D cells [2]", "result": "significantly increased"},
      {"measurement": "cross-resistance of palbociclib resistant cells", "setting": "T47D cells [2]; palbociclib resistant (100 nM) T47D vs parental", "result": "significantly more resistant"},
      {"measurement": "change of GI50 by miR-432 overexpression", "setting": "T47D cells [2]", "result": "significantly increased"},
      {"measurement": "change of GI50 by CDK6 overexpression", "setting": "MCF7 cells", "result": "significantly increased"},
      {"measurement": "cross-resistance of palbociclib resistant cells", "setting": "MCF7 cells; palbociclib resistant (100 nM) MCF7 vs parental", "result": "significantly more resistant"},
      {"measurement": "change of GI50 by miR-432 overexpression", "setting": "MCF7 cells", "result": "significantly increased"},
      {"measurement": "clinical response", "setting": "[9]", "result": "partial response"}
    ]}
  ]
}
